What all share (assay type): cell-based
Holding throughout (settings): extracts 50% ethanol, ND = inhibition not detected

For one assay, the system named is E. coli. Put plainly: MIC/MBC determination, E. coli. As for the experimental part:
(§1) The antimicrobial activity of the extracts was evaluated by measuring the minimum inhibitory concentration (MIC) and the minimum bactericidal concentration (MBC) of the extracts using the methods of the clinical and laboratory standards institute for aerobic (M07-A9) and anaerobic bacteria (M11-A8). From a previously filtered 3% stock solution a series of extract dilutions were prepared (2%, 1.5%, 1%, 0.75%, 0.5%, 0.25%, 0.125%, and 0.0625% (w/v)). A commonly used preservative, 2-phenoxyethanol was tested under the same conditions as a positive control.
(§2) MHB growth media was used for aerobic microorganisms and Wilkins Chalgren Broth (WCB) was used for anaerobic microorganisms. The microorganisms were inoculated at 2% (v/v) from an inoculum with 0.5 McFarland standard (ca. 10^8 CFU/mL) and then adjusted in order to obtain a final inoculum of 10^5 CFU/mL in the testing solutions. […] The OD of each well (experimental and control) was measured each hour at 660 nm. […] Afterwards, the concentrations for which no growth was detected were plated in MHA and Wilkins Chalgren Agar (WCA) accordingly, in order to verify the MBC. MBC and MIC were determined by the analysis of maximum absorbance registered, delay of the exponential phase entry, and the calculation of the specific growth rate. […]

The test system of a further assay is MSSA. Put plainly: MIC/MBC determination, MSSA. As for the experimental part:
as §1, §2

In another assay the test system is P. aeruginosa. Put plainly: MIC/MBC determination, P. aeruginosa. As for the experimental part:
as §1, §2

Another assay relates to C. albicans. Put plainly: MIC/MBC determination, C. albicans. As for the experimental part:
as §1, §2

Structures are written as SMILES.

In the case of `OCCOc1ccccc1` [Phenoxyethanol, 2-phenoxyethanol], the MBC came out at 3% in the assay on E. coli, 0.3% against MSSA, 0.3% in the assay with P. aeruginosa and 3% in the assay with C. albicans.

These data come from patent US20220264913A1, “MULTIFUNCTIONAL EXTRACTS OF SUGARCANE STRAW OR BAGASSE AND USES THEREOF” (UNIVERSIDADE CATÓLICA PORTUGUESA - UCP, priority 2019, published 2022).
